conditions: [M+H-H2O]+; instrument: TW; calibrated with polyalanine and drug standards

| Structure (SMILES) | collision cross section (N2) [Å²] |
| --- | --- |
| COC(=O)C[C@H]1C2(C)CC34OC5(C)O[C@@]6([C@H](OC)C(OC(=O)C(C)C)[C@]7(C)C(/C(=C(/OC)C(C)C)C(=O)O[C@H]7c7ccoc7)[C@@]6(O5)[C@H](OC)[C@@]3(OC)C2OC(C)=O)[C@]14C (stereo partly drawn) [CHUKRASIN METHYL ETHER] | 254.2 |

same assay, conditions: [M+H]+; instrument: TW; calibrated with polyalanine and drug standards

| Structure (SMILES) | collision cross section (N2) [Å²] |
| --- | --- |
| Cc1cc2cc3c(C)cc(=O)oc3c(C)c2o1 [TRIOXSALEN] | 147.4 |
| O=c1ncnc2[nH][nH]cc1-2 [ALLOPURINOL] | 123 |
| CC(C)CCCC(C)C1CCC2C3CCC4CC(=O)CCC4(C)C3CCC12C (stereo not drawn) [CHOLESTAN-3-ONE] | 187.2 |
| CCCC(=O)Nc1ncnc2c1ncn2[C@@H]1O[C@@H]2COP(=O)(O)O[C@H]2[C@H]1OC(=O)CCC [BUCLADESINE] | 215.3 |
| O=c1cc(-c2ccccc2)oc2cc(O)cc(O)c12 [CHRYSIN] | 151.7 |
| CC12CCCC(O)(C1)C1CC(C)(C)C1CC2 (stereo not drawn) [beta-CARYOPHYLLENE ALCOHOL] | 146.1 |
| COC1=C(OC)C(=O)C(CCCCCCCCCCO)=C(C)C1=O [IDEBENONE] | 178.6 |
| COc1cc(O)c(C(C)=O)c(O)c1 [4-O-METHYLPHLORACETOPHENONE] | 130.5 |
| CCCN(CCC)S(=O)(=O)c1ccc(C(=O)O)cc1 [PROBENECID] | 161.4 |
| CC(=O)OCC(=O)[C@@]12OC3(CCCC3)O[C@@H]1C[C@H]1[C@@H]3CCC4=CC(=O)C=C[C@]4(C)[C@@]3(F)[C@@H](O)C[C@@]12C [AMCINONIDE] | 214.9 |
| CC[C@]12CCCN3CCc4c(n(c5ccccc45)[C@@](O)(C(=O)OC)C1)[C@@H]32 [VINCAMINE] | 180.9 |
| COc1cc(/C=C/C(=O)O)ccc1O [FERULIC ACID] | 128.8 |
| CCC(Cc1c(I)cc(I)c(N)c1I)C(=O)O (stereo not drawn) [IOPANIC ACID] | 172.7 |
| CC(=O)c1c(O)cc(O)cc1O [PHLORACETOPHENONE] | 129 |
| CCC1(c2ccc(N)cc2)CCC(=O)NC1=O (stereo not drawn) [AMINOGLUTETHIMIDE] | 164.8 |
| Cc1coc2c1C(=O)C(=O)c1c-2ccc2c1CCCC2(C)C [TANSHINONE IIA] | 164 |
| COc1cc2occc2c2oc(=O)ccc12 [ISOBERGAPTENE] | 139.8 |
| Nc1nc(F)nc2c1ncn2[C@@H]1O[C@H](COP(=O)(O)O)[C@@H](O)[C@@H]1O [FLUDARABINE PHOSPHATE] | 168.8 |
| CC(=O)Nc1cccc(O)c1 [METACETAMOL] | 130.6 |
| CCN(CC)C(=O)c1cccc(C)c1 [DIETHYLTOLUAMIDE] | 143.2 |
| O=C(CCCN1CCC2(CC1)C(=O)NCN2c1ccccc1)c1ccc(F)cc1 [SPIPERONE] | 193.8 |
| NC(N)=NC(=O)Cc1c(Cl)cccc1Cl [GUANFACINE] | 148.9 |
| CC1=C2[C@H]3OC(=O)[C@@H](C)[C@@H]3CC[C@@]2(C)C=CC1=O [SANTONIN] | 154.9 |
| CC(=O)O[C@H]1C[C@@H](OC(C)=O)C(C)(C)C2CC(=O)[C@]3(C)C(CC[C@@]4(C)[C@H](c5ccoc5)OC(=O)[C@H]5O[C@]543)[C@]21C (stereo partly drawn) [7-DEACETOXY-7-OXOKHIVORIN] | 217.7 |
| CC(=O)Nc1ccc(OC(=O)c2ccccc2O)cc1 [ACETAMINOSALOL] | 168.2 |

same assay, conditions: [M+Na]+; instrument: TW; calibrated with polyalanine and drug standards

| Structure (SMILES) | collision cross section (N2) [Å²] |
| --- | --- |
| C=CCS(=O)C[C@H](N)C(=O)O (stereo partly drawn) [ALLIIN] | 134.5 |
| CC[C@H](C)[C@H]1O[C@]2(CC[C@@H]1C)C[C@@H]1C[C@@H](C/C=C(\C)[C@@H](O[C@H]3C[C@H](OC)[C@@H](O[C@H]4C[C@H](OC)[C@@H](O)[C@H](C)O4)[C@H](C)O3)[C@@H](C)/C=C/C=C3\CO[C@@H]4[C@H](O)C(C)=C[C@@H](C(=O)O1)[C@]34O)O2 [IVERMECTIN] | 292.7 |

From the C3SDB collision cross section collection
